In ChEMBL document CHEMBL4483862, “Open-source discovery of chemical leads for next-generation chemoprotective antimalarials” (2018) one finds IC50 and IC90 data, which are given here for 42 compounds.

The test system of the assay is Plasmodium berghei. As to the kind of experiment: Luciferase/luciferin-expressing antifolate-resistant parasites were used to infect a culture of HepG2 cells that were pre-incubated with compounds. Infected hepatocytes emit light due to the luciferase reaction. Assay results are presented as the percent inhibition of light emission compared to control. […]. The class given is functional. The note with it: sporozoite; for IC90: read-out: LUCIFERASE INFECTION ASSAY - IC90.

[1] abbreviates: read-out: LUCIFERASE INFECTION ASSAY - IC50.

Some results are limits rather than exact numbers.

The IC50 is the concentration needed to halve the response being measured. The term IC90 denotes the concentration at which the effect reaches the 90% level. On to `CC(=O)Nc1ccc(Nc2cc3[nH]c(-c4cccc(F)c4)cc3cn2)cc1`, for which the IC90 was determined as 9.16 µM. For the same compound, the concentration for half-maximal inhibition (IC50) (PBLUC_HILL_SLOPE 3.2, PBLUC_R_SQUARED 0.299, read-out: LUCIFERASE INFECTION ASSAY - IC50) amounted to 4.6 µM.
As to `O=[N+]([O-])c1ccc(NN=C(Cc2ccccc2)Cc2ccccc2)c(S(=O)(=O)Nc2ccccc2Cl)c1`, the IC90 is greater than 10 µM. Besides, the IC50 (HEPG2TOX_HILL_SLOPE 2.02, HEPG2TOX_R_SQUARED 0.983, PBLUC_HILL_SLOPE 2.86, PBLUC_R_SQUARED 0.742, read-out: LUCIFERASE INFECTION ASSAY - IC50) was determined as 6.11 µM.
As for `CC(=O)Nc1cc(C(=O)CSc2ncnc3sccc23)ccc1O`, the IC90 was greater than 10 µM. Also, the IC50 under setting [1] was greater than 10 µM.
`O=C(NCc1cc(C(F)(F)F)cc(C(F)(F)F)c1)c1ccc(Cl)c(Cl)c1`: the IC90 was greater than 7.93 µM. Besides, under setting [1], the half-maximal inhibitory concentration (IC50) was greater than 7.93 µM.
For `COc1ccc(-c2cnc3sc(NCCc4ccccn4)nn23)cn1`, the IC90 is greater than 9.36 µM. The concentration for half-maximal inhibition (IC50) under setting [1] was greater than 9.36 µM.
For the compound `CC(=O)Nc1cccc(-c2ccc3ncc(-c4ccccc4)n3n2)c1`, the IC90 was greater than 10 µM. For the same compound, the IC50 (HEPG2TOX_HILL_SLOPE 0.716, HEPG2TOX_R_SQUARED 0.978, PBLUC_HILL_SLOPE 1, PBLUC_R_SQUARED 0.535, read-out: LUCIFERASE INFECTION ASSAY - IC50) amounted to 3.87 µM.
In the case of `Cc1nc2ccc(I)cn2c1/C=N/Nc1ccccn1`, the IC90 is greater than 10 µM. The IC50 (PBLUC_HILL_SLOPE 2.99, PBLUC_R_SQUARED 0.247, read-out: LUCIFERASE INFECTION ASSAY - IC50) came to 6.77 µM.
On to `Cc1onc(-c2ccccc2)c1-c1ccnc(-c2ccc(Cl)cc2)n1`, for which the IC90 stood at 4.54 µM. The IC50 (HEPG2TOX_HILL_SLOPE 2.45, HEPG2TOX_R_SQUARED 0.972, PBLUC_HILL_SLOPE 2.42, PBLUC_R_SQUARED 0.716, read-out: LUCIFERASE INFECTION ASSAY - IC50) worked out at 1.83 µM.
For the compound `FC(F)(F)c1ccc(/C=N/Nc2c(Cl)cc(C(F)(F)F)cc2Cl)cc1`, the IC90 was greater than 8.23 µM. Under setting [1], the IC50 is greater than 8.23 µM.
For the compound `CCOC(=O)c1sc2c(c1C)C(c1ccccc1)C1C(=O)CC(C)(C)CC1=N2` (centres undefined), the IC90 was 4.4 µM. The IC50 under setting [1] came out at 1.87 µM.
On the same counts, the results for `COc1ccc(CCn2c(C)cc(C(=O)COC(=O)c3[nH]nc4ccccc34)c2C)cc1` are greater than 10 µM and greater than 10 µM.
With `COC(=O)c1ccc(-n2c(C)cc(-c3csc(NC(=O)/C=C/c4ccccc4[N+](=O)[O-])n3)c2C)cc1`, the IC90 was greater than 10 µM. The half-maximal inhibitory concentration (IC50) (FFLUC_HILL_SLOPE 15.6, FFLUC_R_SQUARED 0.621, read-out: LUCIFERASE INFECTION ASSAY - IC50) was greater than 10 µM.
On to `CN(C)c1ccc(/C=C/c2ccc3ccccc3[n+]2C)cc1`, for which the IC90 worked out at 2.35 µM. For the same compound, the IC50 (HEPG2TOX_HILL_SLOPE 1.22, HEPG2TOX_R_SQUARED 0.944, PBLUC_HILL_SLOPE 2.39, PBLUC_R_SQUARED 0.798, read-out: LUCIFERASE INFECTION ASSAY - IC50) turned out to be 0.935 µM.
Take `COc1ccc(CN2C(=O)c3ccccc3C(/C=N\OCc3ccc(F)cc3)C2=O)cc1` (centres undefined): the IC90 was greater than 7.63 µM. In addition, the IC50 (FFLUC_HILL_SLOPE 3.53, FFLUC_R_SQUARED 0.589, read-out: LUCIFERASE INFECTION ASSAY - IC50) was greater than 7.63 µM.
On to `COc1ccc(CO)c(Cl)c1OC`, for which the IC90 is greater than 16.3 µM. The IC50 under setting [1] was greater than 16.3 µM.
For `O=C(CCn1c(-c2ccc(F)cc2)n[nH]c1=S)Nc1nc2c(s1)CCCC2`, the IC90 is greater than 10 µM. Besides, the IC50 (PBLUC_HILL_SLOPE 2.35, PBLUC_R_SQUARED 0.213, read-out: LUCIFERASE INFECTION ASSAY - IC50) turned out to be 4.33 µM.
On to `COc1ccc(C(=O)N2CCC(Cc3ccccc3)CC2)c(O)c1`, for which the 90% effect concentration (IC90) was greater than 10 µM. Besides, the IC50 (HEPG2TOX_HILL_SLOPE 0.725, HEPG2TOX_R_SQUARED 0.627, PBLUC_HILL_SLOPE 3.95, PBLUC_R_SQUARED 0.49, read-out: LUCIFERASE INFECTION ASSAY - IC50) came out at 7.88 µM.
Take `O=S(=O)(Oc1cccc2[nH]ccc12)c1ccc(Cl)cc1Cl`: the IC90 is greater than 9.64 µM. In addition, the IC50 under setting [1] is greater than 9.64 µM.
Regarding `COc1cc(C(=O)Nc2cccc(-c3nc4ccccc4[nH]3)c2)cc(Cl)c1OC`, the IC90 is 8.28 µM. Moreover, the IC50 (HEPG2TOX_HILL_SLOPE 11, HEPG2TOX_R_SQUARED 0.706, PBLUC_HILL_SLOPE 2.74, PBLUC_R_SQUARED 0.344, read-out: LUCIFERASE INFECTION ASSAY - IC50) turned out to be 3.71 µM.
On to `CC(=O)c1cc2c(N)c(-c3nc(C(C)(C)C)no3)sc2nc1C`, for which the IC90 amounted to 3.91 µM. In addition, the IC50 (PBLUC_HILL_SLOPE 13.1, PBLUC_R_SQUARED 0.312, read-out: LUCIFERASE INFECTION ASSAY - IC50) is 3.31 µM.
For the compound `Cc1cccc(C)c1N(C(=O)CCNC(=O)c1ccccc1Cl)c1nc2ccccc2s1`, the 90% effect concentration (IC90) was greater than 10 µM. In addition, the IC50 under setting [1] was greater than 10 µM.
`O=C(Cn1ncc(Cl)c(Cl)c1=O)Nc1ccc(F)c(F)c1F`: the IC90 was 9.46 µM. Moreover, the IC50 (HEPG2TOX_HILL_SLOPE 271, HEPG2TOX_R_SQUARED 0.59, PBLUC_HILL_SLOPE 12.5, PBLUC_R_SQUARED 0.106, read-out: LUCIFERASE INFECTION ASSAY - IC50) was found to be 7.93 µM.
Regarding `N#Cc1c(Cl)c2ccccc2[nH]c1=O`, the IC90 is greater than 16.1 µM. Besides, the IC50 under setting [1] was 14.9 µM.
Consider `COc1ccc(OC)c(NC(=O)c2ccc(NC3=C(Cl)C(=O)N(C4CCCCC4)C3=O)cc2)c1`, for which the concentration for an effect of 90% (IC90) came out at 8.05 µM. Besides, the IC50 (HEPG2TOX_HILL_SLOPE 3.19, HEPG2TOX_R_SQUARED 0.935, PBLUC_HILL_SLOPE 2.39, PBLUC_R_SQUARED 0.579, read-out: LUCIFERASE INFECTION ASSAY - IC50) came out at 3.21 µM.
Turning to `COc1ccc(C(NCC(=O)Nc2sccc2C(N)=O)c2ccccc2)cc1` (centres undefined), the IC90 was greater than 10 µM. In addition, for the setting “PBLUC_HILL_SLOPE 3.52, PBLUC_R_SQUARED 0.517, read-out: LUCIFERASE INFECTION ASSAY - IC50”, the IC50 was found to be 5.37 µM.
`CN(C)c1nc(N)nc(/C(C#N)=C/c2ccc(N(c3ccccc3)c3ccccc3)cc2)n1`: the IC90 was greater than 10 µM. Moreover, the IC50 (PBLUC_HILL_SLOPE 2.12, PBLUC_R_SQUARED 0.0159, read-out: LUCIFERASE INFECTION ASSAY - IC50) was found to be 7.93 µM.
As for `C/C(=N\NC(=S)NC(C)(C)C)c1cc(F)cc(Cl)c1O`, the IC90 was 4.66 µM. Also, the IC50 (FFLUC_HILL_SLOPE 2.86, FFLUC_R_SQUARED 0.466, HEPG2TOX_HILL_SLOPE 2.1, HEPG2TOX_R_SQUARED 0.731, PBLUC_HILL_SLOPE 9.8, PBLUC_R_SQUARED 0.522, read-out: LUCIFERASE INFECTION ASSAY - IC50) was found to be 3.72 µM.
Turning to `CCCCOc1ccc(Nc2nc(C(N)Cc3ccc(F)cc3)cs2)nn1` (centres undefined), the IC90 is greater than 8.52 µM. The concentration for half-maximal inhibition (IC50) (PBLUC_HILL_SLOPE 19.3, PBLUC_R_SQUARED 0.0642, read-out: LUCIFERASE INFECTION ASSAY - IC50) came to 8.34 µM.
Turning to `Cc1cc(NCc2cccnc2)n2nc(C(F)(F)F)c(-c3ccccc3)c2n1`, the IC90 is greater than 8.61 µM. Further, the IC50 under setting [1] came out at 7.83 µM.
As for `CC(C)(C)c1ccc(C(=O)Nc2cc(F)ccc2F)s1`, the IC90 stood at 0.55 µM. Further, the IC50 (PBLUC_HILL_SLOPE 0.906, PBLUC_R_SQUARED 0.913, read-out: LUCIFERASE INFECTION ASSAY - IC50) was 0.0487 µM.
In the case of `COc1cccc(NCC2(c3ccnc(-c4ccccc4Cl)c3)CC2)c1`, the IC90 is greater than 10 µM. Also, under setting [1], the IC50 was greater than 10 µM.
On to `O=C(Nc1ccccc1)Nc1cccc(Cl)c1`, for which the IC90 is greater than 13.4 µM. Also, the IC50 under setting [1] was greater than 13.4 µM.
Consider `CCOC(=O)c1sc(N)c(C#N)c1CSc1ncc(C(F)(F)F)cc1Cl`, for which the 90% effect concentration (IC90) is greater than 10 µM. Also, where the note is “PBLUC_HILL_SLOPE 1.96, PBLUC_R_SQUARED 0.0831, read-out: LUCIFERASE INFECTION ASSAY - IC50”, the half-maximal inhibitory concentration (IC50) was greater than 10 µM.
`CC(=O)c1c[nH]c(C(=O)OCC(=O)NCCc2ccc(C(C)C)cc2)c1`: the IC90 is greater than 2 µM. Under setting [1], the IC50 is greater than 2 µM.
For `Cc1ccccc1-n1c(Sc2ncccc2[N+](=O)[O-])nc2ccccc2c1=O`, the IC90 was greater than 10 µM. Besides, under setting [1], the IC50 is greater than 10 µM.
`CCOC(=O)CN1N=C(/C=C/c2ccc(C(C)C)cc2)CCC1=O`: the IC90 is greater than 10 µM. Besides, the IC50 (HEPG2TOX_HILL_SLOPE 1.7, HEPG2TOX_R_SQUARED 0.981, read-out: LUCIFERASE INFECTION ASSAY - IC50) was greater than 10 µM.
For the compound `CC(=O)Nc1ccc(S(=O)(=O)NCCC(=O)OCc2ccccc2F)cc1`, the IC90 is greater than 10 µM. Moreover, the half-maximal inhibitory concentration (IC50) under setting [1] is greater than 10 µM.
As to `CCc1ccc(-c2csc(NC(=O)CCc3c(C)nc4nc(SC)nn4c3C)n2)cc1`, the IC90 was greater than 10 µM. For the same compound, under setting [1], the concentration for half-maximal inhibition (IC50) is greater than 10 µM.
On to `COc1cc(NC(=O)CN2CC=C(c3c[nH]c4ccccc34)CC2)cc(OC)c1OC`, for which the IC90 was greater than 10 µM. For the same compound, under setting [1], the IC50 was greater than 10 µM.
On to `O=C(CN1CCN(c2ccc(C(F)(F)F)cn2)CC1)N1CCC(c2nc3ccccc3s2)CC1`, for which the IC90 is greater than 10 µM. The IC50 (HEPG2TOX_HILL_SLOPE 13.7, HEPG2TOX_R_SQUARED 0.915, PBLUC_HILL_SLOPE 1.27, PBLUC_R_SQUARED 0.698, read-out: LUCIFERASE INFECTION ASSAY - IC50) is 3.43 µM.
As for `CSCCC(C(=O)Oc1c(Cl)cc(Cl)c2ccc(C)nc12)N1C(=O)c2ccccc2C1=O` (centres undefined), the IC90 is greater than 10 µM. Further, the IC50 under setting [1] is greater than 10 µM.
Consider `Cc1ccc(OCCNC(=O)c2[nH]c3c(c2C)C(=O)CCC3)c(C)c1`, for which the IC90 came to 2.74 µM. The IC50 (HEPG2TOX_HILL_SLOPE 1.42, HEPG2TOX_R_SQUARED 0.935, PBLUC_HILL_SLOPE 2.91, PBLUC_R_SQUARED 0.758, read-out: LUCIFERASE INFECTION ASSAY - IC50) was 1.29 µM.
